This assay deals with Clostridium difficile clinical isolate growth, OD600, 24 h. Description: growth modulation of Clostridium difficile isolate – OD600, 9-point, retest, dose response (AID 1224920).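 Also: inhibitors lower culture turbidity so OD600 falls.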

What is called IC50 is the concentration that gives 50% inhibition.

“And” between values parts separate entries of the source, which are not always exact repeats. Equal entries are not always repeated. The source made the active and inactive calls.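 The calls were made as follows: active = IC50 no higher than ten times the top tested dose; inconclusive = flat fit with 30 to 70% inhibition, or poor fit; inactive = IC50 above ten times the top dose.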 A value given as a limit tells only on which side of the number the result lay.

As for `COc1ccc(-c2ccc(C3[C@@H]4CN(S(=O)(=O)c5ccccc5C)C[C@H]3N4)cc2)cc1` (some centres not stated), the IC50 is 21.9 µM. As for `Cc1ccccc1-c1ccc(C2[C@@H]3CN(S(=O)(=O)Cc4ccccc4)C[C@H]2N3)cc1` (some centres not stated), the IC50 is 33.8 µM. As for `O=C(Nc1ccc(F)cc1)N1CCCCN2[C@@H](CO)[C@@H](c3ccc(-c4ccccc4F)cc3)[C@@H]2C1`, the figure is 35 µM; as for `O=C(C[C@H]1CC[C@H]2[C@@H](COC[C@@H](O)CN2C(=O)Nc2cc(Cl)cc(Cl)c2)O1)N1CCOCC1`, 29.1 µM.

For `COc1ccc(NC(=O)N2CCCCN3[C@@H](CO)[C@@H](c4ccc(C#Cc5ccccc5)cc4)[C@@H]3C2)cc1`, the IC50 was 16.2 µM. For `CCCC#Cc1ccc([C@@H]2[C@H](CO)N3CCCCN(S(=O)(=O)c4ccccc4C)C[C@@H]23)cc1`, the IC50 is 24 µM. As for `COc1cccc(-c2ccc(C3[C@@H]4CN(S(=O)(=O)Cc5ccccc5)C[C@H]3N4)cc2)c1` (some centres not stated), the figure is 52.6 µM; as for `N#Cc1ccc(-c2ccc3c(c2)[C@H]2[C@H](CCN2C(=O)c2ccncc2)[C@H](CO)N3)cc1`, > 120 µM (inactive). As for `COc1ccccc1S(=O)(=O)N1C[C@@H]2N[C@H](C1)C2c1ccc(-c2cccc(C)c2)cc1` (some centres not stated), the figure is 53.5 µM. With `N#Cc1ccc(-c2ccc(C3[C@@H]4CN(Cc5ccccc5F)C[C@H]3N4)cc2)cc1` (some centres not stated) the figure was 35.8 µM and 26.1 µM; with `Cc1ccc(-c2ccc([C@@H]3[C@@H]4CN(Cc5ccccc5F)C[C@H]3N4)cc2)cc1`, 4.19 µM; with `Fc1cccc(CN2[C@@H]3CNC[C@H]2C3c2ccc(-c3cccc(F)c3)cc2)c1` (some centres not stated), 28 µM. As to `O=C(Nc1ccccc1)N1C[C@@H]2N[C@H](C1)C2c1ccc(-c2ccccc2)cc1` (some centres not stated), the IC50 was 59.7 µM.

For the molecule `Cc1cccc(-c2ccc([C@H]3[C@@H](CO)N4CCCCN(CCC(F)(F)F)C[C@@H]34)cc2)c1`, the IC50 is 50.5 µM. For `O=S(=O)(Cc1ccccc1)N1C[C@@H]2N[C@H](C1)C2c1ccc(-c2ccccc2)cc1` (some centres not stated), the 50% inhibitory concentration (IC50) is 59.7 µM. As for `O=C(C[C@@H]1CC[C@@H]2[C@H](COC[C@H](O)CN2C(=O)Nc2ccc(Cl)c(Cl)c2)O1)NC1CCC1`, the IC50 was 20.3 µM. Turning to `CCNC(=O)C[C@H]1CC[C@H]2[C@@H](COC[C@@H](O)CN2C(=O)Nc2ccc(C(F)(F)F)cc2)O1`, the IC50 was 8.27 µM. As to `O=C(c1ccc2c(c1)OCO2)N1C[C@@H]2N[C@H](C1)C2c1ccc(/C=C/c2ccccc2)cc1` (some centres not stated), the half-maximal inhibitory concentration (IC50) was 12.4 µM. Consider `COc1ccccc1S(=O)(=O)N1[C@@H]2CNC[C@H]1C2c1ccc(/C=C/c2ccccc2)cc1` (some centres not stated), for which the IC50 is 63.2 µM.

In the case of `Cc1ccc(S(=O)(=O)N2C[C@@H]3N[C@H](C2)C3c2ccc(/C=C/c3ccccc3)cc2)cc1` (some centres not stated), the IC50 is 4.98 µM. For the molecule `COc1ccccc1-c1ccc(C2[C@@H]3CN(Cc4cccc(F)c4)C[C@H]2N3)cc1` (some centres not stated), the IC50 is 6.88 µM.

Regarding `O=C(C[C@H]1CC[C@H]2[C@@H](COC[C@H](O)CN2C(=O)Nc2ccc(Cl)c(Cl)c2)O1)NC1CCC1`, the IC50 is 3.65 µM. For `N#Cc1ccc(-c2ccc(C3[C@@H]4CN(C(=O)Nc5ccc(C(F)(F)F)cc5)C[C@H]3N4)cc2)cc1` (some centres not stated), the IC50 is 29.7 µM. As to `COc1ccc(C#Cc2ccc([C@@H]3[C@H](CO)N4CCCCN(C(=O)Nc5ccc(F)cc5)C[C@@H]34)cc2)cc1`, the IC50 is 6.67 µM. With `Fc1ccc(-c2ccc(C3[C@@H]4CN(Cc5ccccc5)C[C@H]3N4)cc2)cc1` (some centres not stated) the figure was 5.92 µM and 31.9 µM; with `O=C(C1CCCCC1)N1CC2(C1)[C@H](c1ccccc1)[C@H](CO)N2Cc1ccc(Cl)cc1`, 33.7 µM; with `Cc1ccc(S(=O)(=O)N2[C@@H]3CNC[C@H]2C3c2ccc(-c3cccc(F)c3)cc2)cc1` (some centres not stated), 52.3 µM. As to `COc1cccc(CN2C[C@@H]3N[C@H](C2)C3c2ccc(-c3ccccc3F)cc2)c1` (some centres not stated), the IC50 is 9.26 µM and 6.5 µM. In the case of `O=C(C[C@H]1CC[C@@H]2[C@H](COC[C@H](O)CN2C(=O)Nc2ccc(C(F)(F)F)cc2)O1)NC1Cc2ccccc2C1`, the IC50 was 36.6 µM. Turning to `N#Cc1cccc(-c2ccc(C3[C@H]4CNC[C@@H]3N4Cc3ccc(F)cc3)cc2)c1` (some centres not stated), the IC50 was 29.4 µM. As for `COc1cccc(CN2C[C@@H]3N[C@H](C2)C3c2ccc(-c3ccccc3C)cc2)c1` (some centres not stated), the IC50 is 5.48 µM and 13.3 µM. For `Cc1ccccc1-c1ccc([C@H]2[C@@H](CO)N3CCCCN(C(=O)Nc4cccc(F)c4)C[C@H]23)cc1`, the IC50 was 10.6 µM. As for `O=C(Nc1ccc(F)cc1)N1CCCCN2[C@H](CO)[C@@H](c3ccc(-c4cccc(F)c4)cc3)[C@H]2C1`, the half-inhibitory concentration (IC50) was 92.2 µM. Regarding `COc1ccccc1NC(=O)N1CCCCN2[C@@H](CO)[C@H](c3ccc(-c4cccc(C)c4)cc3)[C@@H]2C1`, the IC50 is 93.9 µM.

`C(=C\c1ccc(C2[C@@H]3CN(Cc4cocn4)C[C@H]2N3)cc1)/c1ccccc1` (some centres not stated): the IC50 is 11 µM. `O=C(c1cccc(F)c1)N1CCCCN2[C@H](CO)[C@H](c3ccc(/C=C/c4ccccc4)cc3)[C@H]2C1`: the IC50 is 140 µM. As to `Cc1cccc(-c2ccc([C@@H]3[C@@H]4CN(C(=O)CN(C)C)C[C@H]3N4)cc2)c1`, the 50% inhibitory concentration (IC50) was 61.5 µM. With `COc1ccc(-c2ccc(C3[C@H]4CNC[C@@H]3N4Cc3cc(OC)cc(OC)c3)cc2)cc1` (some centres not stated) the figure was 11.1 µM. As for `Cc1ccccc1-c1ccc(C2[C@@H]3CN(S(=O)(=O)c4ccccc4C)C[C@H]2N3)cc1` (some centres not stated), the figure is 27.5 µM; as for `Cc1cccc(-c2ccc(C3[C@H]4CNC[C@@H]3N4C(=O)Nc3ccccc3Cl)cc2)c1` (some centres not stated), 33.2 µM.

For `COc1cccc(-c2ccc(C3[C@@H]4CN(S(=O)(=O)c5ccccc5C)C[C@H]3N4)cc2)c1` (some centres not stated), the concentration for half-maximal inhibition (IC50) is 29.1 µM. `COc1ccc(-c2ccc(C3[C@@H]4CN(C(=O)Nc5cccc(F)c5)C[C@H]3N4)cc2)cc1` (some centres not stated): the IC50 was 26 µM. As to `O=C(Nc1cccc(F)c1)N1C[C@@H]2N[C@H](C1)C2c1ccc(-c2ccccc2F)cc1` (some centres not stated), the IC50 is 27 µM and 65.3 µM. Turning to `N#Cc1cccc(-c2ccc(C3[C@H]4CNC[C@@H]3N4Cc3cccc(F)c3)cc2)c1` (some centres not stated), the IC50 is 55.7 µM. Turning to `O=C(NC[C@H]1N[C@H](CO)[C@@H]1c1ccc(C2=CCCCC2)cc1)c1ccccc1`, the IC50 was 58.2 µM.

Regarding `O=C(c1cccc(F)c1)N1CC[C@H]2[C@H](CO)Nc3ccc(-c4cccc(F)c4)cc3[C@H]21`, the IC50 is 124 µM. For the molecule `CCNC(=O)C[C@@H]1CC[C@@H]2[C@H](COC[C@@H](O)CN2C(=O)Nc2ccc(C(F)(F)F)cc2)O1`, the IC50 was 31.6 µM. On to `COc1ccccc1CN1C[C@@H]2N[C@H](C1)C2c1ccc(-c2ccccc2)cc1` (some centres not stated), for which the 50% inhibitory concentration (IC50) is 13.3 µM. In the case of `Cc1cccc(-c2ccc(C3[C@@H]4CN(C(=O)C5CCCCC5)C[C@H]3N4)cc2)c1` (some centres not stated), the IC50 was 26.6 µM. With `Cc1ccccc1-c1ccc([C@H]2[C@H](CO)N3CCCCN(C(=O)Nc4cccc(F)c4)C[C@@H]23)cc1`, the IC50 is 29.1 µM. As for `Cc1ccc(-c2ccc([C@@H]3[C@H](CO)N4CCCCN(C(=O)Nc5cccc(F)c5)C[C@@H]34)cc2)cc1`, the figure is 6.52 µM. As for `O=C(C[C@H]1CC[C@@H]2[C@H](COC[C@H](O)CN2C(=O)Nc2ccc(C(F)(F)F)cc2)O1)NCC1CCCCC1`, the figure is 6.15 µM; as for `Cc1ccc(S(=O)(=O)N2[C@@H]3CNC[C@H]2C3c2ccc(-c3cccc(C)c3)cc2)cc1` (some centres not stated), 32.1 µM. Take `OC[C@H]1Nc2ccc(-c3ccc(F)cc3)cc2[C@H]2[C@@H]1CCN2Cc1ccc(F)cc1`: the IC50 was 44.3 µM. `COc1cc(CN2C[C@@H]3N[C@H](C2)C3c2ccc(-c3ccc(C#N)cc3)cc2)cc(OC)c1` (some centres not stated): the IC50 is 38.7 µM. As to `O=C(Nc1ccc(Cl)cc1)N1[C@@H]2CNC[C@H]1C2c1ccc(-c2ccccc2)cc1` (some centres not stated), the IC50 is 60.4 µM. Take `N#Cc1cccc(-c2ccc(C3[C@@H]4CN(Cc5ccccc5F)C[C@H]3N4)cc2)c1` (some centres not stated): the IC50 is 28.6 µM and 26.1 µM. As for `O=C(Nc1ccc(C(F)(F)F)cc1)N1C[C@@H]2N[C@H](C1)C2c1ccc(/C=C/c2ccccc2)cc1` (some centres not stated), the figure is 1.98 µM and 3.86 µM.

For the molecule `Cc1ccccc1-c1ccc(C2[C@@H]3CN(S(=O)(=O)c4ccccc4)C[C@H]2N3)cc1` (some centres not stated), the IC50 is 56.1 µM. With `O=C(C[C@H]1CC[C@H]2[C@@H](COC[C@@H](O)CN2C(=O)Nc2ccc(C(F)(F)F)cc2)O1)NC1Cc2ccccc2C1` the figure was 16.6 µM; with `C/C=C/c1ccc(C2[C@H]3CNC[C@@H]2N3Cc2cc(-c3ccccc3)on2)cc1` (some centres not stated), 32.7 µM.

On to `OC[C@H]1[C@@H](c2ccc(C#CC3CCCC3)cc2)[C@H]2CN(CCC(F)(F)F)CCCCN21`, for which the half-maximal inhibitory concentration (IC50) was 9.49 µM.

As for `COc1cccc(-c2ccc(C3[C@H]4CNC[C@@H]3N4Cc3cc(F)ccc3F)cc2)c1` (some centres not stated), the IC50 was 30 µM.

In the case of `O=C(Nc1ccc(C(F)(F)F)cc1)N1[C@@H]2CNC[C@H]1C2c1ccc(-c2ccc(F)cc2)cc1` (some centres not stated), the concentration for half-maximal inhibition (IC50) was 13.9 µM.

As to `Fc1cccc(-c2ccc(C3[C@@H]4CN(Cc5ccccc5F)C[C@H]3N4)cc2)c1` (some centres not stated), the IC50 was 6.44 µM and 6.35 µM. With `O=C(C1CCCCC1)N1CC[C@@H]2[C@H]1c1cc(C#Cc3ccc(F)cc3)ccc1N[C@@H]2CO`, the IC50 is 45.2 µM. Take `COc1ccccc1NC(=O)N1CCCCN2[C@H](CO)[C@H](c3ccc(-c4cccc(C)c4)cc3)[C@H]2C1`: the IC50 was 10.3 µM.

As for `COc1cccc(-c2ccc(C3[C@@H]4CN(S(=O)(=O)c5cccc(OC)c5)C[C@H]3N4)cc2)c1` (some centres not stated), the IC50 is 24.4 µM. Turning to `FC(F)(F)c1cccc(CN2[C@@H]3CNC[C@H]2[C@@H]3c2ccc(-c3cccnc3)cc2)c1`, the IC50 was 103 µM. With `N#Cc1ccc(-c2ccc3c(c2)[C@@H]2[C@@H](CCN2Cc2ccc4c(c2)OCO4)[C@@H](CO)N3)cc1`, the half-inhibitory concentration (IC50) was 32.3 µM. For `CCNC(=O)C[C@H]1CC[C@@H]2[C@H](COC[C@H](O)CN2C(=O)Nc2ccc(C(F)(F)F)cc2)O1`, the IC50 was 9.45 µM.

As to `c1ccc(CN2C[C@@H]3N[C@H](C2)C3c2ccc(-c3ccccc3)cc2)cc1` (some centres not stated), the IC50 is 18.9 µM and 26.2 µM.

For the molecule `C/C=C/c1ccc(C2[C@H]3CNC[C@@H]2N3C(=O)Nc2cccc(Cl)c2)cc1` (some centres not stated), the IC50 is 54.4 µM. With `COc1cc(CN2C[C@@H]3N[C@H](C2)C3c2ccc(/C=C/c3ccccc3)cc2)cc(OC)c1` (some centres not stated), the concentration for half-maximal inhibition (IC50) was 9.5 µM. With `Cc1cccc(-c2ccc(C3[C@@H]4CN(Cc5ccccc5F)C[C@H]3N4)cc2)c1` (some centres not stated) the figure was 6.22 µM. For `Cc1cccc(S(=O)(=O)N2C[C@@H]3N[C@H](C2)C3c2ccc(-c3ccccc3C)cc2)c1` (some centres not stated), the 50% inhibitory concentration (IC50) was 12.5 µM. Consider `C/C=C/c1ccc(C2[C@@H]3CN(Cc4ccc5c(c4)OCO5)C[C@H]2N3)cc1` (some centres not stated), for which the IC50 is 46.3 µM and 55.8 µM.

Values taken from PubChem BioAssay AID1224920 (Broad Institute, 2016).
